# Measured values published in patent US12435087B2, “Modulators of DCN-1 and methods of use thereof” (Cellarity, Inc., priority 2023, dated 2025).
# Target: DCN1 protein (Homo sapiens (Human), UniProt Q96GG9)
# Test: Intact protein MS analysis with the RapidFire-TOF system (covalent adduct formation)
# Type: binding
# Settings: 400 nM DCN1, incubated at room temperature for 3 hours
# Procedure: (§1) DCN1 protein, His-TEV-DCN1, were expressed in E. Coli. The His-tagged protein was first purified with an Ni-NTA column. The His-tag was cleaved using His-tag TEV protease and the His-tags were removed using a second Ni-NTA column. Protein purity was verified with SDS-PAGE and intact MS. DCN1 was dissolved in a buffer containing 25 mM Tris-HCl, 200 mM NaCl, and 1 mM DTT at 400 nM. 11 concentrations of compounds were added to the DCN1 solution and incubated at room temperature for 3 hours, unless otherwise specified. The reaction plates were quenched by adding 0.2% formic acid. Quenched assay plates were analyzed with an Agilent RapidFire 360 system connected to an Agilent 6545 Q-TOF mass spectrometer equipped with an AJS source. 10 μL of sample volume was loaded onto a custom packed cartridge (4 μL, PLRP-S 30 μm/1000 Å pore; Optimize Technologies) with loading buffer (ddH2O with 0.09% (vol/vol) formic acid and 0.01% (vol/vol) trifluoroacetic acid; 1.25 ml/min) for 6 seconds before being eluted directly into the mass spectrometer in elution buffer (80% acetonitrile with 0.09% (vol/vol) formic acid and 0.01% (vol/vol) trifluoroacetic acid; 0.5 ml/min) for 7 seconds. The cartridge was re-equilibrated with loading buffer for 1 second before collection of the next sample. The Q-TOF was operated in TOF-only positive ionization mode set to the following parameters: Gas Temp=350 C, Drying Gas=7 l/min, Nebulizer=50 psi, Sheath Gas Temp=400 C, Sheath Gas Flow=12 l/min, VCap=4000 V, Nozzle Voltage=1000 V, Fragmentor=125 V, Skimmer=65 V and Oct 1 RF Vpp=750V. Raw MS data files were deconvoluted and analyzed using the Agilent MassHunter Bioconfirm software package to identify both parent protein and expected compound adduct mass signatures.
# An MS assay was performed to evaluate the ability of the compounds to covalently modify DCN-1.
# as §1, with “Vcap=4000” for “VCap=4000”
# Sequence of DCN1 protein (Q96GG9 whole entry): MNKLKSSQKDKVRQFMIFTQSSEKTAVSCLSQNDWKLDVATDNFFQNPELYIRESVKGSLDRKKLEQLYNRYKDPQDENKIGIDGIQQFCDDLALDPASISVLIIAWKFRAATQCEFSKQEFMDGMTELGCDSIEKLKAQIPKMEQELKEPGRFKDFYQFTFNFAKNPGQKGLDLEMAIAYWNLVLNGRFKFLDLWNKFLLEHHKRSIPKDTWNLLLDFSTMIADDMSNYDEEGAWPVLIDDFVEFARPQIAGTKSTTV
Compound,Emax [%],% Adduct Formation (MS Emax)
CCN1C(=O)[C@H](NC(=O)c2cccc(C(F)(F)F)c2)[C@@H](c2ccccc2NC(=O)C(F)Cl)c2cnn(-c3ccccc3)c21 (mixture of isomers) [Compound I-174],0 to 30,
CCN1C(=O)[C@H](NC(=O)c2cccc(C(F)(F)F)c2)[C@@H](c2cccc(NC(=O)[C@H](C)Br)c2)c2c(C)nn(-c3ccccc3)c21 (mixture of isomers) [Compound I-180],80 to 100,
CCN1C(=O)[C@H](NC(=O)c2cccc(C(F)(F)F)c2)[C@@H](c2ccccc2NC(=O)[C@H](C)Cl)c2c(C)nn(-c3ccccc3)c21 (mixture of isomers) [Compound I-181],,++ (MS Emax % adduct formation greater than 30.0 and less than or equal to 80.0)
CCN1C(=O)[C@H](NC(=O)c2cccc(C(F)(F)F)c2)[C@@H](c2ccccc2NC(=O)[C@H](C)Cl)c2c(C)nn(-c3ccccc3)c21 (mixture of isomers) [Compound I-182],,+ (MS Emax % adduct formation greater than or equal to 0.0 and less than or equal to 30.0)
CCN1C(=O)[C@H](NC(=O)c2cccc(C(F)(F)F)c2)[C@@H](c2ccccc2NC(=O)[C@@H](C)Cl)c2cnn(-c3ccccc3)c21 (mixture of isomers) [Compound I-185],0 to 30,
CCN1C(=O)[C@@H](NC(=O)c2cccc(C(F)(F)F)c2)[C@@H](c2cccc(NC(=O)[C@H](C)Br)c2)c2c(C)nn(-c3ccccc3)c21 (mixture of isomers) [Compound I-204],0 to 30,
C=CS(=O)(=O)Nc1cccc([C@H]2c3c(C)nn(-c4ccccc4)c3N(CC)C(=O)[C@@H]2NC(=O)c2cccc(C(F)(F)F)c2)c1 (racemic) [Compound I-5],80 to 100,
C/C=C/C(=O)Nc1cccc([C@H]2c3c(C)nn(-c4ccccc4)c3N(CC)C(=O)[C@@H]2NC(=O)c2cccc(C(F)(F)F)c2)c1 (racemic) [Compound I-164],0 to 30,
C=C(C)C(=O)Nc1ccccc1[C@H]1c2c(C)nn(-c3ccccc3)c2N(CC)C(=O)[C@@H]1NC(=O)c1cccc(C(F)(F)F)c1 (racemic) [Compound I-165],0 to 30,
C=CS(=O)(=O)Nc1ccccc1[C@H]1c2cnn(-c3ccccc3)c2N(CC)C(=O)[C@@H]1NC(=O)c1cccc(C(F)(F)F)c1 (racemic) [Compound I-166],80 to 100,
CCN1C(=O)[C@H](NC(=O)c2cccc(C(F)(F)F)c2)[C@@H](c2ccccc2NC(=O)/C=C/C(=O)OC)c2cnn(-c3ccccc3)c21 (racemic) [Compound I-167],80 to 100,
CCN1C(=O)[C@H](NC(=O)c2cccc(C(F)(F)F)c2)[C@@H](c2ccccc2NC(=O)/C=C/C(F)(F)F)c2cnn(-c3ccccc3)c21 (racemic) [Compound I-168],0 to 30,
CCN1C(=O)[C@H](NC(=O)c2cccc(C(F)(F)F)c2)[C@@H](c2ccccc2NC(=O)CCl)c2cnn(-c3ccccc3)c21 (racemic) [Compound I-170],,+++ (MS Emax % adduct formation greater than 80.0 and less than or equal to 100.0)
CCN1C(=O)[C@H](NC(=O)c2cccc(C(F)(F)F)c2)[C@@H](c2cccc(NC(=O)COc3c(F)c(F)cc(F)c3F)c2)c2c(C)nn(-c3ccccc3)c21 (racemic) [Compound I-171],0 to 30,
C=C(CN1CCOCC1)C(=O)Nc1cccc([C@H]2c3c(C)nn(-c4ccccc4)c3N(CC)C(=O)[C@H]2NC(=O)c2cccc(C(F)(F)F)c2)c1 (racemic) [Compound I-172],,+ (MS Emax % adduct formation greater than or equal to 0.0 and less than or equal to 30.0)
C#CC(=O)Nc1cccc([C@H]2c3c(C)nn(-c4ccccc4)c3N(CC)C(=O)[C@H]2NC(=O)c2cccc(C(F)(F)F)c2)c1 (racemic) [Compound I-173],30 to 80,
CCN1C(=O)[C@H](NC(=O)c2cccc(C(F)(F)F)c2)[C@@H](c2ccccc2NS(=O)(=O)CCl)c2cnn(-c3ccccc3)c21 (racemic) [Compound I-175],0 to 30,
CCN1C(=O)[C@H](NC(=O)c2cccc(C(F)(F)F)c2)[C@@H](c2ccccc2NC(=O)/C=C/CN2CCOCC2)c2cnn(-c3ccccc3)c21 (racemic) [Compound I-176],0 to 30,

Compound,Emax [%],% Adduct Formation (MS Emax)
C=C(CN(C)C)C(=O)Nc1ccccc1[C@H]1c2cnn(-c3ccccc3)c2N(CC)C(=O)[C@@H]1NC(=O)c1cccc(C(F)(F)F)c1 (racemic) [Compound I-177],30 to 80,
CCN1C(=O)[C@H](NC(=O)c2cccc(C(F)(F)F)c2)[C@@H](c2ccccc2NC(=O)/C(C#N)=C/C2CC2)c2cnn(-c3ccccc3)c21 (racemic) [Compound I-179],80 to 100,
C=C(C)C(=O)Nc1ccccc1[C@H]1c2cnn(-c3ccccc3)c2N(CC)C(=O)[C@@H]1NC(=O)c1cccc(C(F)(F)F)c1 (racemic) [Compound I-183],0 to 30,
CCN1C(=O)[C@@H](NC(=O)c2cccc(C(F)(F)F)c2)[C@@H](c2cccc(NS(=O)(=O)CCl)c2)c2c(C)nn(-c3ccccc3)c21 (racemic) [Compound I-184],0 to 30,
C=CS(=O)(=O)Nc1cccc([C@H]2c3c(C)nn(-c4ccccc4)c3N(CC)C(=O)[C@H]2NC(=O)c2cccc(C(F)(F)F)c2)c1 (racemic) [Compound I-186],30 to 80,
CCN1C(=O)[C@H](NC(=O)c2cccc(C(F)(F)F)c2)[C@@H](c2ccc(F)cc2NC(=O)CC#N)c2cnn(-c3ccccc3)c21 (racemic) [Compound I-187],0 to 30,
CCN1C(=O)[C@H](NC(=O)c2cccc(C(F)(F)F)c2)[C@@H](c2ccccc2NC(=O)C2=CCCC2)c2cnn(-c3ccccc3)c21 (racemic) [Compound I-188],0 to 30,
C/C=C/C(=O)Nc1ccccc1[C@H]1c2cnn(-c3ccccc3)c2N(CC)C(=O)[C@@H]1NC(=O)c1cccc(C(F)(F)F)c1 (racemic) [Compound I-189],0 to 30,
C=CC(=O)Nc1ccccc1[C@H]1c2cnn(-c3ccccc3)c2N(CC)C(=O)[C@@H]1NC(=O)c1cccc(C(F)(F)F)c1 (racemic) [Compound I-190],30 to 80,
CCN1C(=O)[C@@H](NC(=O)c2cccc(C(F)(F)F)c2)[C@@H](c2ccccc2NC(=O)CCl)c2c(C)nn(-c3ccccc3)c21 (racemic) [Compound I-191],80 to 100,
CCN1C(=O)[C@@H](NC(=O)c2cccc(C(F)(F)F)c2)[C@@H](c2cccc(NC(=O)/C=C/CN(C)C)c2)c2c(C)nn(-c3ccccc3)c21 (racemic) [Compound I-192],0 to 30,
CC#CC(=O)Nc1cccc([C@H]2c3c(C)nn(-c4ccccc4)c3N(CC)C(=O)[C@@H]2NC(=O)c2cccc(C(F)(F)F)c2)c1 (racemic) [Compound I-193],30 to 80,
C#CC(=O)Nc1ccccc1[C@H]1c2cnn(-c3ccccc3)c2N(CC)C(=O)[C@@H]1NC(=O)c1cccc(C(F)(F)F)c1 (racemic) [Compound I-194],80 to 100,
CCN1C(=O)[C@H](NC(=O)c2cccc(C(F)(F)F)c2)[C@@H](c2ccccc2NC(=O)C2=CCC2)c2cnn(-c3ccccc3)c21 (racemic) [Compound I-195],0 to 30,
CCN1C(=O)[C@H](NC(=O)c2cccc(C(F)(F)F)c2)[C@@H](c2ccccc2NC(=O)/C=C/CN(C)C)c2cnn(-c3ccccc3)c21 (racemic) [Compound I-196],0 to 30,
CCN1C(=O)[C@H](NC(=O)c2cccc(C(F)(F)F)c2)[C@@H](c2ccccc2NC(=O)C(Cl)Cl)c2cnn(-c3ccccc3)c21 (racemic) [Compound I-198],0 to 30,
C=C(F)C(=O)Nc1ccccc1[C@H]1c2cnn(-c3ccccc3)c2N(CC)C(=O)[C@@H]1NC(=O)c1cccc(C(F)(F)F)c1 (racemic) [Compound I-199],0 to 30,
CCN1C(=O)[C@H](NC(=O)c2cccc(C(F)(F)F)c2)[C@@H](c2ccccc2NC(=O)COc2c(F)c(F)cc(F)c2F)c2cnn(-c3ccccc3)c21 (racemic) [Compound I-200],0 to 30,
